{"source": "patent US20090227606A1", "about": "“Methods for Preventing or Treating Acute and Chronic Pain” (priority 2006, published 2009)", "key": {"[1]": {"system": "GLT-1", "assay": "eGFP-GLT-1-positive puncta in mouse spinal cord dorsal horn", "type": "in vivo", "description": "With these in vivo data collected, further experiments were performed in the transgenic mice to more clearly define the effects of propentofylline treatment on GLT-1 and GLAST in the spinal cord. As discussed above, following in vivo testing, mice were transcardially perfused and tissue was fixed with paraformaldehyde. Lumbar spinal cord sections were identified and post-fixed in paraformaldehyde. After one week in sucrose to prevent freeze fracture, spinal cord segments were frozen in dry ice, mounted and prepared with cryostat sectioning. Sections were then subjected to immunohistochemical analysis. […] In order to quantitate the relative number of eGFP (marker for GLT-1) or DsRed (marker for GLAST) puncta in each spinal cord dorsal horn, images using a fluorescence microscope were taken with a Q-Fire cooled camera (397 ms exposure). […] An observer blind to the treatment groups was used to count the relative number of GLT-1 or GLAST positive puncta in the ipsilateral (injured) dorsal horn versus the contralateral (non-injured) dorsal horn. […] For both reporters (GLT-1, green color; GLAST, red color), diffuse, cytoplasmic and punctate, perinuclear expression was observed that overlapped with GFAP (blue color) in some, but not all cases.\nTransgenic mice on a C57B1/6 background were created according to the methods previously described (Regan et al. 2006. J. Neuroscience, in press). Briefly, in order to determine where in the central nervous system GLAST is expressed, transgenic mice were created using a bacterial artificial chromosome containing the GLAST gene plus 18 kb of DNA upstream of the first exon and 60 kb downstream of the last exon. DsRed cDNA was inserted into the first exon to allow expression of DsRed instead of GLAST when the promoter is active. […]\nAs described previously with rats, mice were transcardially perfused with 0.1 M PBS (phosphate-buffered saline), pH 7.4, followed by 4%-paraformaldehyde in PBS on day 12 post-L5 spinal nerve transection. […] The sections were examined with a fluorescence microscope, and images were captured with a Q-Fire cooled camera. […]"}, "[2]": {"system": "GLT-1", "assay": "Immunocytochemistry of cultured astrocytes, GLT-1 staining", "type": "cell-based, rat", "settings": "treated astrocytes", "description": "Primary astrocyte-enriched cultures were plated onto sterile 18 mm glass coverslips. After three washes in PBS, cells were permeabilized in 5% glacial acetic acid/95% ethanol (acid-alcohol) for 10 minutes. After washing, cells were incubated in a 1% normal goat serum for 30 minutes and then overnight at 4° C. in primary mouse anti-GFAP (1:500), rabbit anti-GLT-1 (1:500) or guinea pig anti-GLAST (1:2000). The following day, cells were washed and then incubated for 2 hours at room temperature with goat anti-mouse Alexa Fluor™-555 (Invitrogen Corporation, Carlsbad, Calif.) goat anti-guinea pig Alexa Fluor™-488 (Invitrogen Corporation, Carlsbad, Calif.) or goat anti-rabbit Alexa Fluor™-488 (Invitrogen Corporation, Carlsbad, Calif.; all at 1:250). Finally, cells were post-fixed in acid-alcohol and mounted with Vectashield (Vector Labs, Burlingame, Calif.) containing 4′,6-diamidino-2-phenylindole dihydrochloride hydrate (DAPI, Sigma Chemical Co., St Louis, Mo.), in order to visualize cell nuclei. The sections were examined with a fluorescence microscope, and images were captured with a Q-Fire cooled camera (Olympus, Melville, N.Y.). Confocal microscopy was also performed using a Zeiss LSM 510 Meta confocal microscope (Carl Zeiss AG, Oberkochen, Germany). Merged color images were processed using Adobe Photoshop 7.0 (Adobe Systems, San Jose, Calif.)."}, "[3]": {"settings": "L5/propentofylline group, day 12"}}, "note": "“Also recorded” adds a separate entry of the source.", "data": [{"smiles": "CCCn1cnc2c1c(=O)n(CCCCC(C)=O)c(=O)n2C", "note": "[propentofylline]", "values": [{"measurement": "eGFP-GLT-1-positive puncta in injured mice, in words", "setting": "[1]; [3]", "result": "reversed with propentofylline administration; also recorded: restored levels of eGFP-GLT-1-positive puncta to that of the contralateral side"}, {"measurement": "ipsilateral versus contralateral ratio of eGFP-GLT-1-positive puncta", "setting": "[1]; [3]", "result": 1}, {"measurement": "eGFP-GLT-1-positive puncta in sham mice", "setting": "[1]; sham/propentofylline group", "result": "did not lead to further increases in GLT-1 above normal expression levels"}, {"measurement": "GLT-1 staining", "setting": "[2]", "result": "concomitant increase in GLT-1 staining"}]}]}
